Legend:
[1] = In vivo PK study in male Sprague Dawley rats; details: rats; for C0 / AUC(0-inf) / AUC(0-t) / half-life / Cmax / Tmax / bioavailability: male, Sprague Dawley, rat, plasma; for AUC(0-inf): read-out: AUCInf Mean; for AUC(0-t): read-out: AUCLast Mean; for half-life: read-out: T1/2 Mean (converted); for bioavailability: read-out: Bioavailability
Procedure: (§1) The studies were conducted in male Sprague Dawley rats, three rats per group, or male CD1 mice, three mice per group. Compounds were dosed 1.0 mg/Kg i.v. (vehicle ethanol: % PEG400 in deionized water, in proportions suitable for dosing a clear solution) and 3.0 mg/kg or 10 mg/kg p.o. (vehicle: 1% methyl cellulose: 1,500 cP in DI water (w/v)). A11 animals had free access to food and water. Rat i.v. PK time points: Plasma: 0.083, 0.25, 0.5, 1, 2, 4, 8 and 24 h; Rat p.o. PK time points: Plasma: 0.25, 0.5, 1, 2, 4, 8 and 24 h. Mouse i.v. PK time points: Plasma: 0.083, 0.25, 0.5, 1, 2, 4, 8, 24, and 48 h; Mouse p.o. PK time points: Plasma: 0.25, 0.5, 1, 2, 4, 8, 24, and 48 h. Concentrations of compound in the plasma samples were analyzed using a LC-MS/MS method. WinNonlin (Phoenix™, version 6.1) or other similar software was used for pharmacokinetic calculations.

[2] = system: CT26 cells implanted subcutaneously into Balb/c mice; test: CT26 syngeneic colon cancer model, AhR antagonist with PD-L1 antibody; format: in vivo; details: 3 mg/kg p.o. once a day over 14 days with anti-PD-L1 antibody 10 mg/kg IP every 3 days
[3] = In vivo PK study in male CD1 mice; details: mice; for AUC(0-t): read-out: AUCLast Mean; for half-life: read-out: T1/2 Mean (converted); for bioavailability: read-out: Bioavailability
Procedure: as §1

[4] = male, CD1, mouse, plasma, 1 mg/kg IV
[5] = male, CD1, mouse, plasma, 10 mg/kg PO

Row | Structure (SMILES) | C0 ([1]; 1 mg/kg IV) | AUC(0-inf) ([1]; 1 mg/kg IV) | AUC(0-t) ([1]; 1 mg/kg IV) | half-life ([1]; 1 mg/kg IV) | Cmax ([1]; PO, dosage of 3 mg/kg) | Tmax ([1]; PO, dosage of 3 mg/kg) | AUC(0-t) ([1]; PO, dosage of 3 mg/kg) | bioavailability ([1]; PO, dosage of 3 mg/kg) | CI Mean ([1]; 1 mg/kg IV) | C0 [3, 4] | AUC(0-t) [3, 4] | half-life [3, 4] | Cmax [3, 5] | Tmax [3, 5] | AUC(0-t) [3, 5] | bioavailability [3, 5] | half-life [3, 5] | CI Mean ([3]; 1 mg/kg IV) | other results
1 | C[C@@H](CO)n1cnc2c(-c3cccc(F)c3)nc(-c3ccc(Cl)cc3)cc2c1=O [Compound 7] | 212 ng/mL | 1000 ng·h/mL | 659 ng·h/mL | 5.31 h | 224 ng/mL | 3.33 h | 2400 ng·h/mL | 110% | 295 mL/min/kg | – | – | – | – | – | – | – | – | – | Cmax ([1]; PO, dosage of 10 mg/kg): 610 ng/mL; Tmax ([1]; PO, dosage of 10 mg/kg): 3.33 h; AUC(0-t) ([1]; PO, dosage of 10 mg/kg): 7820 ng·h/mL; bioavailability ([1]; PO, dosage of 10 mg/kg): 105%; tumor volume, coadministration with PD-L1 antibody ([2]; FIG. 2, p=0.0039 (Mann-Whitney)): reduction in tumor volume; tumor weight upon termination of study, coadministration with PD-L1 antibody ([2]; FIG. 3, p=0.041 (Mann-Whitney)): reduction in tumor weight
2 | Cc1ccc(-c2cc3c(=O)n([C@@H](C)CO)cnc3c(-c3cccnc3)n2)cc1 [Compound 17, (S)-3-(1-hydroxypropan-2-yl)-8-(pyridin-3-yl)-6-(p-tolyl)pyrido[3,4-d]pyrimidin-4(3H)-one] | – | – | – | – | – | – | – | – | – | 601 ng/mL | 231 ng·h/mL | 0.504 h | 349 ng/mL | 0.417 h | 497 ng·h/mL | 21.6% | 1.15 h | 1200 mL/min/kg | AUC(0-inf) ([3]; male, CD1, mouse, plasma, 10 mg/kg PO, read-out: AUCInf Mean): 519 ng·h/mL
3 | CC(C)(O)Cn1cnc2c(-c3cccnc3)nc(-c3ccc(Cl)cc3)cc2c1=O [Compound 18] | – | – | – | – | – | – | – | – | – | 333 ng/mL | 6770 ng·h/mL | 20.7 h | 1310 ng/mL | 6.67 h | 45800 ng·h/mL | 67.6% | 23.4 h | 33.7 mL/min/kg | –
4 | O=c1c2cc(-c3ccc(C(F)(F)F)nc3)nc(-c3cccnc3)c2ncn1[C@@H]1COC[C@H]1O [Compound 79] | 663 ng/mL | 1220 ng·h/mL | 1200 ng·h/mL | 1.38 h | 508 ng/mL | 1 h | 2270 ng·h/mL | 65.9% | 228 mL/min/kg | – | – | – | – | – | – | – | – | – | AUC(0-inf) ([1]; PO, dosage of 3 mg/kg): 2420 ng·h/mL; half-life ([1]; PO, dosage of 3 mg/kg): 2.53 h

More lines, main results first:

Row | C0 ([1]; 1 mg/kg IV) | AUC(0-inf) ([1]; 1 mg/kg IV) | AUC(0-t) ([1]; 1 mg/kg IV) | half-life ([1]; 1 mg/kg IV) | Cmax ([1]; PO, dosage of 3 mg/kg) | Tmax ([1]; PO, dosage of 3 mg/kg) | AUC(0-t) ([1]; PO, dosage of 3 mg/kg) | bioavailability ([1]; PO, dosage of 3 mg/kg) | CI Mean ([1]; 1 mg/kg IV) | C0 [3, 4] | AUC(0-t) [3, 4] | half-life [3, 4] | Cmax [3, 5] | Tmax [3, 5] | AUC(0-t) [3, 5] | bioavailability [3, 5] | half-life [3, 5] | CI Mean ([3]; 1 mg/kg IV) | Structure (SMILES) | other results
5 | 425 ng/mL | 3050 ng·h/mL | 2910 ng·h/mL | 5.61 h | 152 ng/mL | 5.33 h | 2430 ng·h/mL | 27.9% | 91.3 mL/min/kg | 350 ng/mL | 6520 ng·h/mL | 11.8 h | 1120 ng/mL | 8 h | 29800 ng·h/mL | 45.7% | – | 40.3 mL/min/kg | Cn1cc(-c2nc(-c3ccc(C(F)(F)F)nc3)cc3c(=O)n(CC(C)(C)O)cnc23)cn1 [Compound 60] | –
6 | 199 ng/mL | 12300 ng·h/mL | 2790 ng·h/mL | 63 h | 40.2 ng/mL | 8 h | 794 ng·h/mL | 9.49% | 26 mL/min/kg | 349 ng/mL | 10400 ng·h/mL | 69.5 h | 152 ng/mL | 13.3 h | 6060 ng·h/mL | 5.82% | – | 10.7 mL/min/kg | Cn1cc(-c2nc(-c3ccc(C(F)(F)F)cn3)cc3c(=O)n(CC(C)(C)O)cnc23)cn1 [Compound 103, 3-(2-hydroxy-2-methylpropyl)-8-(1-methyl-1H-pyrazol-4-yl)-6-(5-(trifluoromethyl)pyridin-2-yl)pyrido[3,4-d]pyrimidin-4(3H)-one] | –
7 | 411 ng/mL | 9520 ng·h/mL | 4410 ng·h/mL | 27.1 h | 592 ng/mL | 6.67 h | 11900 ng·h/mL | 90.2% | 29.5 mL/min/kg | 412 ng/mL | 11300 ng·h/mL | 55.9 h | 2350 ng/mL | 12 h | 96100 ng·h/mL | 85% | 48.5 h | 11.4 mL/min/kg | CC(C)(O)Cn1cnc2c(-c3cccnc3)nc(-c3ccc(C(F)(F)F)cn3)cc2c1=O [Compound 105] | –

— patent US20230295152A1 (SENDA BIOSCIENCES, INC., priority 2019, published 2023)
